Measured values from patent publication US20250326744A1, “PIPERAZINE DERIVATIVE OR SALT THEREOF, AND PHARMACEUTICAL COMPOSITION” (priority 2022, published 2025).
Where a name gives a salt, the structure may show the parent alone.

Tests used:
mexB (PA) strain = test: Combinational effect with antibacterial agent against Pseudomonas aeruginosa (Test Examples 2 and 4): mexB (PA) strain with LVFX, TC or AZT at 1/4 MIC, EC99; format: cell-based; conditions: mexB (PA) strain, Test Example 4; for EC99, combinational effect with AZT, mexB (PA): combined with AZT at 1/4 MIC; for EC99, combinational effect with LVFX, mexB (PA): combined with LVFX at 1/4 MIC; for EC99, combinational effect with TC, mexB (PA): combined with TC at 1/4 MIC
Method in brief: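 P. aeruginosa mexB (PA) strain, lacking MexCD-OprJ, MexEF-OprN and MexXY and overexpressing MexAB-OprM, grown 16–20 h in CAMHB (10^4–5 CFU/well) with LVFX, TC or AZT at ¼ MIC plus test compound at 0–800 μM. Growth read as OD595; EC99 is the lowest compound concentration giving ≥99% growth inhibition.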

S-3769 strain = test: Combinational effect with antibacterial agent against Pseudomonas aeruginosa (Test Examples 2 and 4): S-3769 strain with AMK or GM at 1/4 MIC, EC99; format: cell-based; conditions: S-3769 strain, Test Example 4; for EC99, combinational effect with AMK, S-3769 strain: combined with AMK at 1/4 MIC; for EC99, combinational effect with GM, S-3769 strain: combined with GM at 1/4 MIC
Method in brief: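 P. aeruginosa S-3769 (clinical isolate, MexY overexpressed) grown 16–20 h in CAMHB, 10^4 to 5 CFU/well, with AMK or GM at ¼ MIC plus test compound 0–800 μM. Growth read as OD595; EC99 is the lowest compound concentration giving ≥99% growth inhibition.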

| Compound | EC99, combinational effect with AZT, mexB (PA) (mexB (PA) strain) | EC99, combinational effect with LVFX, mexB (PA) (mexB (PA) strain) | EC99, combinational effect with TC, mexB (PA) (mexB (PA) strain) | EC99, combinational effect with AMK, S-3769 strain (S-3769 strain) | EC99, combinational effect with GM, S-3769 strain (S-3769 strain) |
| --- | --- | --- | --- | --- | --- |
| CCOc1cccc(F)c1CN1CCN(C(=O)[C@H](N)C2CCN(CCc3cc(Cl)ccc3-c3cccc(N)c3F)CC2)CC1 [Example 557, Hydrobromide of (R)-2-amino-2-(1-(2-(3′-amino-4-chloro-2′-fluoro-[1,1-biphenyl]-2-yl)ethyl)piperidin-4-yl)-1-(4-(2-ethoxy-6-fluorobenzyl)piperazin-1-yl)ethan-1-one] | S (EC99≤12.5 μM) | S (EC99≤12.5 μM) | S (EC99≤12.5 μM) | A (12.5 μM<EC99≤25 μM) | A (12.5 μM<EC99≤25 μM) |
| CCOc1cccc(F)c1CN1CCN(C(=O)[C@H](N)C2CCN(CCc3cc(Cl)ccc3-c3cc(N)cc(F)c3)CC2)CC1 [Example 558, Hydrobromide of (R)-2-amino-2-(1-(2-(3′-amino-4-chloro-5′-fluoro-[1,1-biphenyl]-2-yl)ethyl)piperidin-4-yl)-1-(4-(2-ethoxy-6-fluorobenzyl)piperazin-1-yl)ethan-1-one] | A (12.5 μM<EC99≤25 μM) | S (EC99≤12.5 μM) | A (12.5 μM<EC99≤25 μM) | S (EC99≤12.5 μM) | S (EC99≤12.5 μM) |
| CCOc1cccc(F)c1CN1CCN(C(=O)[C@H](N)C2CCN(CCc3cc(Cl)ccc3-c3cc(N)ccc3F)CC2)CC1 [Example 559, Hydrobromide of (R)-2-amino-2-(1-(2-(5′-amino-4-chloro-2′-fluoro-[1,1-biphenyl]-2-yl)ethyl)piperidin-4-yl)-1-(4-(2-ethoxy-6-fluorobenzyl)piperazin-1-yl)ethan-1-one] | S (EC99≤12.5 μM) | S (EC99≤12.5 μM) | S (EC99≤12.5 μM) | A (12.5 μM<EC99≤25 μM) | S (EC99≤12.5 μM) |
| CCOc1cccc(F)c1CN1CCN(C(=O)[C@H](N)C2CCN(CCc3cc(Cl)ccc3-c3cc(N)ccc3Cl)CC2)CC1 [Example 560, Hydrobromide of (R)-2-amino-2-(1-(2-(5′-amino-2′,4-dichloro-[1,1-biphenyl]-2-yl)ethyl)piperidin-4-yl)-1-(4-(2-ethoxy-6-fluorobenzyl)piperazin-1-yl)ethan-1-one] | S (EC99≤12.5 μM) | S (EC99≤12.5 μM) | S (EC99≤12.5 μM) | A (12.5 μM<EC99≤25 μM) | A (12.5 μM<EC99≤25 μM) |
| CCOc1cccc(F)c1CN1CCN(C(=O)[C@H](N)C2CCN(CCc3cc(Cl)ccc3-c3cccc(NC)c3)CC2)CC1 [Example 561, Hydrobromide of (R)-2-amino-2-(1-(2-(4-chloro-3′-(methylamino)-[1,1-biphenyl]-2-yl)ethyl)piperidin-4-yl)-1-(4-(2-ethoxy-6-fluorobenzyl)piperazin-1-yl)ethan-1-one] | S (EC99≤12.5 μM) | S (EC99≤12.5 μM) | A (12.5 μM<EC99≤25 μM) | S (EC99≤12.5 μM) | S (EC99≤12.5 μM) |
| CCOc1cccc(F)c1CN1CCN(C(=O)[C@H](N)C2CCN(CCc3cc(Cl)ccc3-c3cccc(N(C)C)c3)CC2)CC1 [Example 562, Hydrobromide of (R)-2-amino-2-(1-(2-(4-chloro-3′-(dimethylamino)-[1,1-biphenyl]-2-yl)ethyl)piperidin-4-yl)-1-(4-(2-ethoxy-6-fluorobenzyl)piperazin-1-yl)ethan-1-one] | A (12.5 μM<EC99≤25 μM) | B (25 μM<EC99≤100 μM) | B (25 μM<EC99≤100 μM) | S (EC99≤12.5 μM) | S (EC99≤12.5 μM) |
| CCOc1cccc(F)c1CN1CCN(C(=O)[C@H](N)C2CCN(CCc3cc(Cl)ccc3-c3cnc(NC)c(C)c3)CC2)CC1 [Example 563, Hydrobromide of (R)-2-amino-2-(1-(5-chloro-2-(5-methyl-6-(methylamino)pyridine-3-yl)phenethyl)piperidin-4-yl)-1-(4-(2-ethoxy-6-fluorobenzyl)piperazin-1-yl)ethan-1-one] | C (100 μM<EC99) | C (100 μM<EC99) | C (100 μM<EC99) | A (12.5 μM<EC99≤25 μM) | A (12.5 μM<EC99≤25 μM) |
| CSc1ccccc1CN1CCN(C(=O)[C@H](N)C2CCN(CCc3cc(Cl)ccc3-c3cc(N)cc(F)c3)CC2)CC1 [Example 564, Hydrobromide of (R)-2-amino-2-(1-(2-(3′-amino-4-chloro-5′-fluoro-[1,1-biphenyl]-2-yl)ethyl)piperidin-4-yl)-1-(4-(2-(methylthio)benzyl)piperazin-1-yl)ethan-1-one] | S (EC99≤12.5 μM) | S (EC99≤12.5 μM) | S (EC99≤12.5 μM) | B (25 μM<EC99≤100 μM) | B (25 μM<EC99≤100 μM) |
| CNc1cccc(-c2ccc(Cl)cc2CCN2CCC([C@@H](N)C(=O)N3CCN(Cc4ccccc4SC)CC3)CC2)c1 [Example 565, Hydrobromide of (R)-2-amino-2-(1-(2-(4-chloro-3′-(methylamino)-[1,1-biphenyl]-2-yl)ethyl)piperidin-4-yl)-1-(4-(2-(methylthio)benzyl)piperazin-1-yl)ethan-1-one] | A (12.5 μM<EC99≤25 μM) | S (EC99≤12.5 μM) | S (EC99≤12.5 μM) | B (25 μM<EC99≤100 μM) | B (25 μM<EC99≤100 μM) |
| CCOc1cccc(F)c1CN1CCN(C(=O)[C@H](N)C2CC[N+](C)(CCc3cc(Cl)ccc3-c3ccccc3)CC2)CC1 (stereo partly drawn) [Example 568, Hydrobromide of (R)-4-(1-amino-2-(4-(2-ethoxy-6-fluorobenzyl)piperazin-1-yl)-2-oxoethyl)-1-(2-(4-chloro-[1,1-biphenyl]-2-yl)ethyl)-1-methylpiperidin-1-ium bromide] | C (100 μM<EC99) | C (100 μM<EC99) | C (100 μM<EC99) | S (EC99≤12.5 μM) | S (EC99≤12.5 μM) |
| CCOc1cccc(F)c1CN1CCN(C(=O)[C@H](N)C2CCC(N(C)Cc3ccccc3)CC2)CC1 (stereo partly drawn) [Example 570, Hydrobromide of (R)-2-amino-2-(4-(benzyl(methyl)amino)cyclohexyl)-1-(4-(2-ethoxy-6-fluorobenzyl)piperazin-1-yl)ethan-1-one] | C (100 μM<EC99) | C (100 μM<EC99) | C (100 μM<EC99) | B (25 μM<EC99≤100 μM) | B (25 μM<EC99≤100 μM) |
| CCOc1cccc(F)c1CN1CCN(C(=O)[C@H](N)C2CCN(CCc3cc(Cl)ccc3-c3cccc(O)c3Cl)CC2)CC1 [Example 571, (R)-2-amino-2-(1-(2-(2′,4-dichloro-3′-hydroxy-[1,1′-biphenyl]-2-yl)ethyl)piperidin-4-yl)-1-(4-(2-ethoxy-6-fluorobenzyl)piperazin-1-yl)ethan-1-one] | S (EC99≤12.5 μM) | S (EC99≤12.5 μM) | S (EC99≤12.5 μM) | S (EC99≤12.5 μM) | S (EC99≤12.5 μM) |
| CCOc1cccc(F)c1CN1CCN(C(=O)[C@H](N)C2CCN(CCc3cc(Cl)ccc3-c3cncc(O)c3)CC2)CC1 [Example 572, Hydrochloride of (R)-2-amino-2-(1-(5-chloro-2-(5-hydroxypyridin-3-yl)phenethyl)piperidin-4-yl)-1-(4-(2-ethoxy-6-fluorobenzyl)piperazin-1-yl) ethan-1-one] | B (25 μM<EC99≤100 μM) | C (100 μM<EC99) | B (25 μM<EC99≤100 μM) | A (12.5 μM<EC99≤25 μM) | A (12.5 μM<EC99≤25 μM) |
| COc1cccc(O)c1CN1CCN(C(=O)[C@H](N)C2CCN(CCc3cc(Cl)ccc3-c3ccccc3)CC2)CC1 [Example 575, Hydrochloride of (R)-2-amino-2-(1-(2-(4-chloro-[1,1-biphenyl]-2-yl)ethyl)piperidin-4-yl)-1-(4-(2-hydroxy-6-methoxybenzyl)piperazin-1-yl) ethan-1-one] | S (EC99≤12.5 μM) | S (EC99≤12.5 μM) | A (12.5 μM<EC99≤25 μM) | A (12.5 μM<EC99≤25 μM) | A (12.5 μM<EC99≤25 μM) |
